Bounds are passed on as bounds.

In one assay the target is T1, human GPR120 (Homo sapiens, UniProt Q5NUL3).
T1 construct: host or cells: HEK293 cells co-expressing Gqi5
T1 sequence (Q5NUL3 1-361): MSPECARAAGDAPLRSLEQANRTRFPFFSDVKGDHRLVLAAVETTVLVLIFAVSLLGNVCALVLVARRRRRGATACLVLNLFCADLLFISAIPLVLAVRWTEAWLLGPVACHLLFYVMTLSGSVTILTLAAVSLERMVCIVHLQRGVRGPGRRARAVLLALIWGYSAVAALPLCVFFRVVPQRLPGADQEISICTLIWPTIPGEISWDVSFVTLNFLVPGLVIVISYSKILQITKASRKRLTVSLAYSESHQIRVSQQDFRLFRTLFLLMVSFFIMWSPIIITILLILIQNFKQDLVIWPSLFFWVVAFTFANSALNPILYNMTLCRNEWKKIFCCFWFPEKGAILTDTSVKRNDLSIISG
In words: Intracellular Ca2+ assay in human GPR120 stable cell line (FLIPR Calcium 4 dye, Flexstation). In kind it is cell-based. Conditions: % activity at 2.5 µM compared to the maximal activity of the compound of Example 25 at 2.5 µM (=100%); HEK293 cells co-expressing Gqi5.
Regarding `CC1(C)Cc2cc(F)cc(COc3ccc(C4CC4C(=O)O)cc3)c2O1` (stereo not shown) [Example 131B, 2-(4-((5-fluoro-2,2-dimethyl-2,3-dihydrobenzofuran-7-yl)methoxy)phenyl) cyclopropanecarboxylic acid], the “% Activity (Ex. 25 Reference Compound)” value worked out at 105.8%.

The same assay, now with this note: HEK293, % activity at 2.5 µM compared to the maximal activity of the compound of Example 25 at 2.5 µM (=100%); HEK293 cells co-expressing Gqi5; read-out: % Activity (Ex. 25 Reference Compound).
For `CC(C)Oc1cc(OCc2cc(Cl)cc3c2OC(C)(C)C3)ccc1CCC(=O)O` [Example 116, 3-(4-((5-chloro-2,2-dimethyl-2,3-dihydrobenzofuran-7-yl)methoxy)-2-isopropoxyphenyl)propanoic acid], the activity at 2.5 µM was determined as 146%.

With `Cc1cc2cc(Cl)cc(COc3ccc(CC(C)C(=O)O)cc3F)c2o1` (stereo not shown) [Example 120, 3-(4-((5-chloro-2-methylbenzofuran-7-yl)methoxy)-3-fluorophenyl)-2-methylpropanoic acid], the activity at 2.5 µM came to 104%.

On to `CN(C)Cc1cc(OCc2cc(F)cc3c2OC(C)(C)C3)ccc1CCC(=O)O` [Example 122, 3-(2-((dimethylamino)methyl)-4-((5-fluoro-2,2-dimethyl-2,3-dihydrobenzofuran-7-yl)methoxy)phenyl)propanoic acid], for which the activity at 2.5 µM was determined as 3.58%.

With `CC(=O)Nc1cc(COc2ccc(CC(C)C(=O)O)cc2)c2c(c1)CC(C)(C)O2` (stereo not shown) [Example 123, 3-(4-((5-acetamido-2,2-dimethyl-2,3-dihydrobenzofuran-7-yl)methoxy)phenyl)-2-methylpropanoic acid], the activity at 2.5 µM turned out to be 47%.

As for `CC(Cc1ccc(OCc2cc(OC(F)(F)F)cc3c2OC(C)(C)C3)cc1)C(=O)O` (stereo not shown) [Example 124, 3-(4-((2,2-dimethyl-5-(trifluoromethoxy)-2,3-dihydrobenzofuran-7-yl)methoxy)phenyl)-2-methylpropanoic acid], the activity at 2.5 µM amounted to 132%.

For `Cc1cc2c(OCc3cc(F)cc4c3OC(C)(C)C4)ccc(CCC(=O)O)c2o1` [Example 125, 3-(4-((5-fluoro-2,2-dimethyl-2,3-dihydrobenzofuran-7-yl)methoxy)-2-methylbenzofuran-7-yl)propanoic acid], the activity at 2.5 µM was found to be 32.6%.

As to `CC(=O)NCCOC(=O)C(C)Cc1ccc(OCc2cc(Cl)cc3c2OC(C)(C)C3)c(C(F)(F)F)c1` (stereo not shown) [Example 126, 2-acetamidoethyl 3-(4-((5-chloro-2,2-dimethyl-2,3-dihydrobenzofuran-7-yl)methoxy)-3-(trifluoromethyl)phenyl)-2-methylpropanoate], the activity at 2.5 µM amounted to 47%.

Turning to `CC1(C)Cc2cc(Cl)cc(CNc3ccc(CCC(=O)O)cc3)c2O1` [Example 127, 3-(4-(((5-chloro-2,2-dimethyl-2,3-dihydrobenzofuran-7-yl)methyl)amino)phenyl) propanoic acid], the activity at 2.5 µM turned out to be 153%.

Take `CC(Cc1ccc(OCc2cc(Cl)cc3c2OC(C)(C)C3O)cc1)C(=O)O` (stereo not shown) [Example 130, 3-(4-((5-chloro-3-hydroxy-2,2-dimethyl-2,3-dihydrobenzofuran-7-yl)methoxy)phenyl)-2-methylpropanoic acid]: the activity at 2.5 µM is 104%.

On to `CC1(C)Cc2cc(F)cc(COc3ccc(C4CC4C(=O)O)cc3)c2O1` (stereo not shown) [Example 131A, 2-(4-((5-fluoro-2,2-dimethyl-2,3-dihydrobenzofuran-7-yl)methoxy)phenyl) cyclopropanecarboxylic acid], for which the activity at 2.5 µM was determined as 104%.

On to `CC1(C)Cc2cc(F)cc(COc3ccc(CC(=O)O)cc3)c2O1` [Example 133, 2-(4-((5-fluoro-2,2-dimethyl-2,3-dihydrobenzofuran-7-yl)methoxy)phenyl)acetic acid], for which the activity at 2.5 µM turned out to be 103%.

Consider `CC1(C)Cc2cc(F)cc(COc3ccc(CCC(=O)O)c(OC(F)(F)F)c3)c2O1` [Example 136, 3-(4-((5-fluoro-2,2-dimethyl-2,3-dihydrobenzofuran-7-yl)methoxy)-2-(trifluoromethoxy)phenyl)propanoic acid], for which the activity at 2.5 µM was found to be 141%.

`CCc1cc(OCc2cccc3c2CC(C)(C)O3)ccc1CCC(=O)O` [Example 140, 3-(4-((2,2-dimethyl-2,3-dihydrobenzofuran-4-yl)methoxy)-2-ethylphenyl)propanoic acid]: the activity at 2.5 µM came out at 146%.

`C[C@H](Cc1ccc(OCc2cc(Cl)cc3c2OC(C)(C)C3)c(C(F)(F)F)c1)C(=O)O` [Example 143, (R)-3-(4-((5-chloro-2,2-dimethyl-2,3-dihydrobenzofuran-7-yl)methoxy)-3-(trifluoromethyl)phenyl)-2-methylpropanoic acid]: the activity at 2.5 µM was 90.6%.

As for `[2H]C1([2H])c2cc(F)cc(COc3ccc(CC(C)C(=O)O)cc3)c2OC1(C)C` (stereo not shown) [Example 145, 3-(4-((3,3-dideuterio-5-fluoro-2,2-dimethyl-2,3-dihydrobenzofuran-7-yl)methoxy)phenyl)-2-methylpropanoic acid], the activity at 2.5 µM was found to be 144%.

For `[2H]C1([2H])c2cc(Cl)cc(COc3ccc(CC(C)C(=O)O)cc3F)c2OC1(C)C` (stereo not shown) [Example 146, 3-(4-((3,3-dideuterio-5-chloro-2,2-dimethyl-2,3-dihydrobenzofuran-7-yl)methoxy)-3-fluorophenyl)-2-methylpropanoic acid], the activity at 2.5 µM was 141%.

Regarding `[2H]C1([2H])c2cc(Cl)cc(COc3ccc(CC(C)C(=O)O)cc3C(F)(F)F)c2OC1(C)C` (stereo not shown) [Example 147, 3-(4-((3,3-dideuterio-5-chloro-2,2-dimethyl-2,3-dihydrobenzofuran-7-yl)methoxy)-3-(trifluoromethyl)phenyl)-2-methylpropanoic acid], the activity at 2.5 µM was determined as 139%.

Consider `CC(Cc1ccc(OCc2cc(Cl)cc3c2OCC3(C)C)cc1)C(=O)O` (stereo not shown) [Example 148, 3-(4-((5-chloro-3,3-dimethyl-2,3-dihydrobenzofuran-7-yl)methoxy)phenyl)-2-methylpropanoic acid], for which the activity at 2.5 µM stood at 114%.

For the compound `Cc1cc2cccc(COc3c(F)cc(CC(C)C(=O)O)cc3F)c2s1` (stereo not shown) [Example 151, 3-(3,5-difluoro-4-((2-methylbenzo[b]thiophen-7-yl)methoxy)phenyl)-2-methylpropanoic acid], the activity at 2.5 µM was 117%.

As to `Cc1cc2cccc(COc3ccc4c(c3)CCC4CC(=O)O)c2s1` (stereo not shown) [Example 152, 2-(5-((2-methylbenzo[b]thiophen-7-yl)methoxy)-2,3-dihydro-1H-inden-1-yl)acetic acid], the activity at 2.5 µM was found to be 83.8%.

Consider `CC1(C)Cc2cc(F)cc(COc3ccc4c(c3)CCCC4CC(=O)O)c2O1` (stereo not shown) [Example 153, 2-(6-((5-fluoro-2,2-dimethyl-2,3-dihydrobenzofuran-7-yl)methoxy)-1,2,3,4-tetrahydronaphthalen-1-yl)acetic acid], for which the activity at 2.5 µM is 107%.

On to `CC1(C)Cc2cc(Cl)cc(COc3ccc(C(C)(C)CC(=O)O)cc3)c2O1` [Example 156, 3-(4-((5-chloro-2,2-dimethyl-2,3-dihydrobenzofuran-7-yl)methoxy)phenyl)-3-methylbutanoic acid], for which the activity at 2.5 µM was 149%.

For the compound `CC(Cc1ccc(OCc2cc(Cl)cc3c2OC2(CCCC2)C3)cc1)C(=O)O` (stereo not shown) [Example 159, 3-(4-((5-chloro-3H-spiro[benzofuran-2,1'-cyclopentane]-7-yl)methoxy)phenyl)-2-methylpropanoic acid], the activity at 2.5 µM stood at 165%.

As for `CC1(C)Cc2cc(F)cc(COc3ccc(CCCC(=O)O)cc3)c2O1` [Example 160, 4-(4-((5-fluoro-2,2-dimethyl-2,3-dihydrobenzofuran-7-yl)methoxy)phenyl)butanoic acid], the activity at 2.5 µM was determined as 172%.

`CC(Cc1ccc(OCc2cc(F)cc3c2OC2(CCCC2)C3)cc1)C(=O)O` (stereo not shown) [Example 162, 3-(4-((5-fluoro-3H-spiro[benzofuran-2,1'-cyclopentane]-7-yl)methoxy)phenyl)-2-methylpropanoic acid]: the activity at 2.5 µM was determined as 154%.

With `CC(CCc1ccc(OCc2cc(F)cc3c2OC(C)(C)C3)cc1)C(=O)O` (stereo not shown) [Example 171, 4-(4-((5-fluoro-2,2-dimethyl-2,3-dihydrobenzofuran-7-yl)methoxy)phenyl)-2-methylbutanoic acid], the activity at 2.5 µM turned out to be 99%.

With `COc1cc(CCC(=O)O)ccc1OCc1cc(F)cc2c1OC(C)(C)C2` [Example 173, 3-(4-((5-fluoro-2,2-dimethyl-2,3-dihydrobenzofuran-7-yl)methoxy)-3-methoxyphenyl)propanoic acid], the activity at 2.5 µM amounted to 159%.

For `CC1(C)Cc2cc(F)cc(COc3ccc4c(c3)CC[C@H]4CC(=O)O)c2O1` [Example 175, (S)-2-(5-((5-fluoro-2,2-dimethyl-2,3-dihydrobenzofuran-7-yl)methoxy)-2,3-dihydro-1H-inden-1-yl)acetic acid], the activity at 2.5 µM amounted to 152%.

Consider `CC1(C)Cc2cc(Cl)cc(COc3ccc4c(c3)CC[C@H]4CC(=O)O)c2O1` [Example 176, (S)-2-(5-((5-chloro-2,2-dimethyl-2,3-dihydrobenzofuran-7-yl)methoxy)-2,3-dihydro-1H-inden-1-yl)acetic acid], for which the activity at 2.5 µM turned out to be 138%.

Staying with this assay, now noted: eight concentrations from 0.00001 to 20 µM; changes (Max-Min) of fluorescence intensity.
Broadly, the EC50 is the concentration at which the effect is half-maximal. Turning to `CC(=O)Nc1cc(COc2ccc(CC(C)C(=O)O)cc2)c2c(c1)CC(C)(C)O2` (stereo not shown) [Example 123, 3-(4-((5-acetamido-2,2-dimethyl-2,3-dihydrobenzofuran-7-yl)methoxy)phenyl)-2-methylpropanoic acid], the EC50 lay in the range of 1000 to 10000 nM.

`CC(Cc1ccc(OCc2cc(OC(F)(F)F)cc3c2OC(C)(C)C3)cc1)C(=O)O` (stereo not shown) [Example 124, 3-(4-((2,2-dimethyl-5-(trifluoromethoxy)-2,3-dihydrobenzofuran-7-yl)methoxy)phenyl)-2-methylpropanoic acid]: the half-maximal effective concentration (EC50) was not above 1000 nM.

Take `CC(Cc1ccc(OCc2cc(Cl)cc3c2OC(C)(C)C3O)cc1)C(=O)O` (stereo not shown) [Example 130, 3-(4-((5-chloro-3-hydroxy-2,2-dimethyl-2,3-dihydrobenzofuran-7-yl)methoxy)phenyl)-2-methylpropanoic acid]: the EC50 lay within 1000 to 10000 nM.

For `CC1(C)Cc2cc(F)cc(COc3ccc(CC(=O)O)cc3)c2O1` [Example 133, 2-(4-((5-fluoro-2,2-dimethyl-2,3-dihydrobenzofuran-7-yl)methoxy)phenyl)acetic acid], the concentration for a half-maximal effect (EC50) fell in the range of 1000 to 10000 nM.

As to `CC(CCc1ccc(OCc2cc(F)cc3c2OC(C)(C)C3)cc1)C(=O)O` (stereo not shown) [Example 171, 4-(4-((5-fluoro-2,2-dimethyl-2,3-dihydrobenzofuran-7-yl)methoxy)phenyl)-2-methylbutanoic acid], the concentration for a half-maximal effect (EC50) lay in the range of 1000 to 10000 nM.

As for `CC(CCc1ccc(OCc2cc(Cl)cc3c2OC(C)(C)C3)cc1)C(=O)O` (stereo not shown) [Example 172, 4-(4-((5-chloro-2,2-dimethyl-2,3-dihydrobenzofuran-7-yl)methoxy)phenyl)-2-methylbutanoic acid], the EC50 is not above 1000 nM.

`COc1cc(CCC(=O)O)ccc1OCc1cc(F)cc2c1OC(C)(C)C2` [Example 173, 3-(4-((5-fluoro-2,2-dimethyl-2,3-dihydrobenzofuran-7-yl)methoxy)-3-methoxyphenyl)propanoic acid]: the EC50 was in the range of 1000 to 10000 nM.
